Laboratory results taken from publication PMC6113223 (2018).

Experiments:
[1] = test system: Lee aptamer (56-mer) (DNA, aptamer) AGCAGCACAGAGGTCATGGGGGGTGTGACTTTGGTGTGCCTATGCGTGCTACGGAA; test: AuNP aggregation colorimetry (A650/A525), centrifugation and resuspension; settings: 100 mM NaCl (Na+), added after target incubation, water, 5% ethanol in target solution, room temperature; for binding: tested at 600 nM
[2] = test system: Random ssDNA (70-mer) (DNA, single strand) AGGCCTAAGGGCATAATTAGCTCGAGCTCGAAAGGGGTTATATGATGATTTGAATTCATGGGGCCCGACT; test: as above; settings: 100 mM NaCl (Na+), added after target incubation; water, 5% ethanol in target solution, room temperature; control; VTD3 series in Figures 2C and 3B

binding [1]	also measured	SMILES
no	–	C[C@]12CC[C@@H]3c4ccc(O)cc4CC[C@H]3[C@@H]1CC[C@@H]2O
no	–	CC(=O)[C@H]1CC[C@H]2[C@@H]3CCC4=CC(=O)CC[C@]4(C)[C@H]3CC[C@]12C
no	–	C[C@]12C=CC(=O)C=C1CC[C@@H]1[C@@H]2C(=O)C[C@@]2(C)[C@H]1CC[C@]2(O)C(=O)CO
–	binding ([1]; concentration series in Figure 2C): no	C=C1CC[C@H](O)C/C1=C/C=C1\CCC[C@]2(C)[C@@H]([C@H](C)/C=C/[C@H](C)C(C)C)CC[C@@H]12
–	binding [2]: no; Kd, app ([1]; 10 min, apparent, Langmuir fit, aptamer adsorbed on AuNP): 220 nM	C=C1CC[C@H](O)C/C1=C/C=C1\CCC[C@]2(C)[C@@H]([C@H](C)CCCC(C)C)CC[C@@H]12
